Test results from patent publication US9822137B2, “Phosphonucleosides useful in the treatment of viral disorders” (UNIVERSITY COLLEGE CORK, priority 2012, dated 2017).
≈ marks a conversion by molar mass, not a printed value. Counter-ions that a name gives are not always drawn. Like-named read-outs stand apart in the source and are kept apart here.

Legend:
[1] = target: HIV-1 reverse transcriptase (Human immunodeficiency virus type 1 group M subtype B, UniProt P04585); test: cell-free HIV-1 RT assay with artificial homopolymeric template/primer and [3H]dNTP; type: biochemical; details: for inhibition of incorporation of [3H]dATP in poly rU/oligo dA / inhibition of incorporation of [3H]dCTP in poly rI/oligo dC: 11a and 11b at 200 μg/mL
Method: To prepare the template/primers for the RT experiments, 0.15 mM poly(U), poly(A), and poly(I) were mixed with an equal volume of 0.0375 mM oligo(dA), oligo(dT), and oligo(dC), respectively. The final concentrations of the templates in the RT reaction mixture were 0.015 mM. The reaction mixture (50 μl) contained 50 mM Tris.HCl (pH 7.8), 5 mM dithiothreitol, 300 mM glutathione, 500 μM EDTA, 150 mM KCl, 5 mM MgCl2, 1.25 μg of bovine serum albumin, an appropriate concentration of labeled (tritiated) substrate dTTP, dCTP, or dATP (2 μCi/assay), a fixed concentration of the template/primer poly(A).oligo(dT) (0.015 mM), poly(I).oligo(dC) (0.015 mM), and poly(U).oligo(dA) (0.015 mM), 0.06% Triton X-100, 10 μl of inhibitor solution (containing various concentrations of the compounds), and 1 μl of the RT preparation. The reaction mixtures were incubated at 37° C. for 30 min, at which time 100 μl of yeast RNA (1 mg/ml) and 1 ml of Na4P2O7 (0.02 M) in trichloroacetic acid (5% v/v) were added. The solutions were kept on ice for 30 min, after which the acid-insoluble material was washed and analyzed for radioactivity.

[2] = chemical stability on storage / in solution; type: physicochemical
HIV-RT = HIV-RT (Human immunodeficiency virus type 1 group M subtype B, UniProt P04585); details: cell-free HIV-RT assay, literature, not a direct comparison; cited from earlier work
[3] = substrate [3H]dATP, template/primer poly rU.oligo dA, read-out: IC50, HIV-RT catalysed incorporation of [3H]dATP / polyrU.dA (converted)
[4] = substrate [3H]dCTP, template/primer poly rI.oligo dC, read-out: IC50, HIV-RT catalysed incorporation of [3H]dCTP / polyrI.dC (converted)
[5] = substrate [3H]dTTP, template/primer poly rA.oligo dT, read-out: IC50, HIV-RT catalysed incorporation of [3H]dTTP / polyrA.dT (converted)
[6] = IC50, HIV-RT catalysed incorporation of [3H]dATP / polyrU.dA, substrate [3H]dATP, template/primer poly rU.oligo dA
[7] = IC50, HIV-RT catalysed incorporation of [3H]dCTP / polyrI.dC, substrate [3H]dCTP, template/primer poly rI.oligo dC
[8] = IC50, HIV-RT catalysed incorporation of [3H]dTTP / polyrA.dT, substrate [3H]dTTP, template/primer poly rA.oligo dT

Row | SMILES | melting point | IC50 [1, 3] | IC50 [1, 4] | IC50 [1, 5] | further results
1 | O=C(O)C(OC1CCC(n2cc(F)c(=O)[nH]c2=O)C1)P(=O)(O)O (stereo not drawn) (as salt: ammonium) [Compound 41, 2-((3-(5-fluoro-2,4-dioxo-3,4-dihydropyrimidin-1(2H)-yl)cyclopentyl)oxy)-2-phosphonoacetic acid] | 243 °C | – | – | – | –
2 | Cc1cn([C@@H]2CC[C@H](OC(C(=O)O)P(=O)(O)O)C2)c(=O)[nH]c1=O (relative stereo) (as salt: ammonium) [Compound 11a, cis-1-{4-[Carboxy(phosphono)methoxy]cyclopentan-1-yl}thymine] | 228 to 230 °C | – | – | – | –
3 | Nc1ncnc2c1ncn2[C@@H]1CC[C@H](OC(C(=O)O)P(=O)(O)O)C1 (relative stereo) (as salt: ammonium) [Compound 11d, cis-9-{4-[Carboxy(phosphono)methoxy]cyclopentan-1-yl}adenine] | 236 to 240 °C | – | – | – | –
4 | COC(=O)C(O[C@H]1CC[C@@H](n2cc(C)c(=O)[nH]c2=O)C1)P(=O)(OC)OC (relative stereo) [26a] | 130 to 133 °C | – | – | – | –
5 | Cc1cn([C@@H]2CC[C@H](OC(C(=O)O)P(=O)(O)O)C2)c(=O)[nH]c1=O (relative stereo) [Compound 11a, cis-1-{4-[Carboxy(phosphono)methoxy]cyclopentan-1-yl}thymine] | – | 307 µM | > 574 µM | 0.431 µM | inhibition of incorporation of [3H]dATP in poly rU/oligo dA [1]: no marked, if any inhibition; inhibition of incorporation of [3H]dCTP in poly rI/oligo dC [1]: no marked, if any inhibition
6 | O=C(O)C(O[C@H]1CC[C@@H](n2ccc(=O)[nH]c2=O)C1)P(=O)(O)O (relative stereo) [Compound 11b, cis-1-{4-[Carboxy(phosphono)methoxy]cyclopentan-1-yl}uracil] | – | 221 µM | > 598 µM | 3.89 µM | inhibition of incorporation of [3H]dATP in poly rU/oligo dA [1]: no marked, if any inhibition; inhibition of incorporation of [3H]dCTP in poly rI/oligo dC [1]: no marked, if any inhibition
7 | Nc1ccn([C@@H]2CC[C@H](OC(C(=O)O)P(=O)(O)O)C2)c(=O)n1 (relative stereo) [Compound 11c, cis-1-{4-[Carboxy(phosphono)methoxy]cyclopentan-1-yl}cytosine] | > 250 °C | 108 µM | 4.8 µM | 231 µM | –
8 | Nc1ncnc2c1ncn2[C@@H]1CC[C@H](OC(C(=O)O)P(=O)(O)O)C1 (relative stereo) [Compound 11d, cis-9-{4-[Carboxy(phosphono)methoxy]cyclopentan-1-yl}adenine] | – | – | – | – | degradation of stored sample ([2]; sample checked after 1 year): ~10%; IC50 [1, 6]: 0.274 µM; IC50 [1, 7]: > 560 µM; IC50 [1, 8]: ≥ 560 µM; inhibition of incorporation of [3H]dATP in poly rU/oligo dA [1]: potent inhibitor
9 | COC(=O)C(O[C@H]1C=C[C@@H](n2ccc(N)nc2=O)C1)P(=O)(OC)OC (relative stereo) [Compound 24c, cis-1-{4-[(Methoxycarbonyl)dimethylphosphonomethoxy]cyclopent-2-en-1-yl}cytosine] | – | – | – | – | stability in deuterated chloroform ([2]; 36 hours at room temperature): Significant decomposition
10 | COC(=O)C(O[C@H]1CC[C@@H](n2ccc(=O)[nH]c2=O)C1)P(=O)(OC)OC (relative stereo) [Compound 26b, cis-1-{4-[(methoxycarbonyl)dimethylphosphonomethoxy]cyclopentan-1-yl}uracil] | – | – | – | – | stability on storage at room temperature ([2]; room temperature, extended periods, neat, solid or in solution): no noticeable decomposition; purity by 1H NMR of aged sample ([2]; sample approximately 2 years old, stored at room temperature): 95%
11 | COC(=O)C(O[C@H]1CC[C@@H](n2ccc(N)nc2=O)C1)P(=O)(OC)OC (relative stereo) [Compound 26c, cis-1-{4-[(Methoxycarbonyl)dimethylphosphonomethoxy]cyclopentan-1-yl}cytosine] | – | – | – | – | stability in deuterated chloroform ([2]; 16 hours at room temperature): Significant decomposition
12 | COC(=O)C(O[C@H]1CC[C@@H](n2cnc3nc(N)nc(Cl)c32)C1)P(=O)(OC)OC (relative stereo) [Compound N-7-26e, cis-2-Amino-7-{4-[(methoxycarbonyl)dimethylphosphonornethoxy]cyclopentan-1-yl}-6-chloropurine] | – | – | – | – | stability in solution ([2]; within 4 days in solution): significant decomposition
13 | Cc1cn([C@H]2CC[C@@H](OC(C(=O)O)P(=O)(O)O)C2)c(=O)[nH]c1=O (single isomer, unassigned; (+)) (as salt: ammonium) [(+)-11a] | 225 to 227 °C | – | – | – | –
14 | Nc1ncnc2c1ncn2[C@H]1CC[C@@H](OC(C(=O)O)P(=O)(O)O)C1 (single isomer, unassigned; (+)) (as salt: ammonium) [(+)-11d] | 234 to 239 °C | – | – | – | –
15 | COC(=O)C(O[C@H]1CC[C@@H](n2cc(C)c(=O)[nH]c2=O)C1)P(=O)(OC)OC (single isomer, unassigned; (+)) [(+)26a] | 129 to 130 °C | – | – | – | –
16 | Cc1cn([C@H]2CC[C@@H](OC(C(=O)O)P(=O)(O)O)C2)c(=O)[nH]c1=O (single isomer, unassigned; (+)) [(+)-11a] | – | 101 µM | > 574 µM | 37.3 µM | –
17 | O=C(O)C(O[C@@H]1CC[C@H](n2ccc(=O)[nH]c2=O)C1)P(=O)(O)O (single isomer, unassigned; (+)) [(+)-11b] | – | 168 µM | > 598 µM | 120 µM | –
18 | Nc1ccn([C@H]2CC[C@@H](OC(C(=O)O)P(=O)(O)O)C2)c(=O)n1 (single isomer, unassigned; (+)) [(+)-11c] | > 250 °C | 54 µM | 402 µM | 23.4 µM | –
19 | Nc1ncnc2c1ncn2[C@H]1CC[C@@H](OC(C(=O)O)P(=O)(O)O)C1 (single isomer, unassigned; (+)) [(+)-11d] | – | 33.6 µM | > 560 µM | 487 µM | –
20 | Cc1cn([C@@H]2CC[C@H](OC(C(=O)O)P(=O)(O)O)C2)c(=O)[nH]c1=O (single isomer, unassigned; (-)) (as salt: ammonium) [(−)-11a] | 229 to 230 °C | – | – | – | –
21 | Nc1ncnc2c1ncn2[C@@H]1CC[C@H](OC(C(=O)O)P(=O)(O)O)C1 (single isomer, unassigned; (-)) (as salt: ammonium) [(−)-11d] | 237 to 241 °C | – | – | – | –
22 | COC(=O)C(O[C@@H]1CC[C@H](n2cc(C)c(=O)[nH]c2=O)C1)P(=O)(OC)OC (single isomer, unassigned; (-)) [(−)26a] | 133 to 135 °C | – | – | – | –
23 | Cc1cn([C@@H]2CC[C@H](OC(C(=O)O)P(=O)(O)O)C2)c(=O)[nH]c1=O (single isomer, unassigned; (-)) [(−)-11a] | – | – | – | – | IC50 [1, 6]: 167 µM; IC50 [1, 7]: > 574 µM; IC50 [1, 8]: 0.431 µM; inhibition of HIV-1-RT-catalysed incorporation of [3H]dTTP in poly rA/oligo dT [1]: potent inhibitory activity
24 | O=C(O)C(O[C@H]1CC[C@@H](n2ccc(=O)[nH]c2=O)C1)P(=O)(O)O (single isomer, unassigned; (-)) [(−)-11b] | – | 233 µM | > 598 µM | 3.29 µM | inhibition of HIV-1-RT-catalysed incorporation of [3H]dTTP in poly rA/oligo dT [1]: potent inhibitory activity
25 | Nc1ccn([C@@H]2CC[C@H](OC(C(=O)O)P(=O)(O)O)C2)c(=O)n1 (single isomer, unassigned; (-)) [(−)-11c] | – | 51 µM | 4.5 µM | 180 µM | inhibition of incorporation of [3H]dCTP in poly rI/oligo dC [1]: strong inhibition
26 | Nc1ncnc2c1ncn2[C@@H]1CC[C@H](OC(C(=O)O)P(=O)(O)O)C1 (single isomer, unassigned; (-)) [(−)-11d] | – | 0.202 µM | > 560 µM | > 560 µM | –
27 | Cc1cn([C@H]2C[C@H](N=[N+]=[N-])[C@@H](COP(=O)(O)OP(=O)(O)OP(=O)(O)O)O2)c(=O)[nH]c1=O [AZT-TP, reference compound] | – | – | – | – | IC50, HIV-RT catalysed incorporation of [3H]dTTP / polyrA.dT ([1]; substrate [3H]dTTP, template/primer poly rA.oligo dT): 0.035 ± 0.016 µg/mL
28 | Cc1cn([C@H]2C[C@H](N=[N+]=[N-])[C@@H](CO)O2)c(=O)[nH]c1=O [AZT] | – | – | – | – | IC50 anti-HIV-RT activity reported by McClure (HIV-RT): 0.1 µg/mL (≈ 0.374 µM)
29 | Nc1ncnc2c1ncn2[C@H]1CC[C@@H](COP(=O)(O)OP(=O)(O)OP(=O)(O)O)O1 [ddATP, reference compound] | – | – | – | – | IC50, HIV-RT catalysed incorporation of [3H]dATP / polyrU.dA ([1]; substrate [3H]dATP, template/primer poly rU.oligo dA): 0.55 ± 0.09 µg/mL
30 | Nc1ccn([C@H]2CC[C@@H](COP(=O)(O)OP(=O)(O)OP(=O)(O)O)O2)c(=O)n1 [ddCTP, reference compound] | – | – | – | – | IC50, HIV-RT catalysed incorporation of [3H]dCTP / polyrI.dC ([1]; substrate [3H]dCTP, template/primer poly rI.oligo dC): 5.0 ± 0.4 µg/mL
